From patent US9433595B2, “Phytoestrogenic compositions for preventing or treating symptoms associated with menopause” (Natural Endotech Co., Ltd., priority 2008, dated 2016) come the findings set out here.

This assay relates to SaOS-2 cells. Briefly: Estrogen-specific ALP (alkaline phosphatase) induction in SaOS-2 osteoblast cells. Type of assay: cell-based. The conditions noted are these: conclusion drawn from ALP induction in SaOS-2 cells. How it is done:
To verify the effect of the compound of the present invention, non-reproductive tract target tissue response was carried out for measuring estrogenecity. […]
In this regard, the estrogenic activity of the compounds of the experimental groups as described above in the Example 1 was analyzed using SaOS-2 cells in this study.
For experiments, SaOS-2 cell line was purchased from Korean Type Culture Collection (KTCC). […] Thereafter, 50 μl of cell lysis buffer (100 mM Tris, 100 mM NaCl, 1 mM EDTA) was added to the culture media of each well and then, 150 μl of 30 mM p-nitrophenyl phosphate (Merk, Germany) was thoroughly mixed with shaking, followed by measuring the absorbance at 405 nm for 10 min at an interval of 50 sec. ALP induction was calculated as follows: % induction=[(Slopesample)/(Slope17β-estradiol)]×100. […]

For the molecule `O=C(O)/C=C/c1ccccc1` [cinnamic acid], the estrogenic activity result is given as “remarkable estrogenic activity”. As for `COC(=O)C1=CO[C@@H](O[C@H]2O[C@@H](CO)[C@H](O)[C@@H](O)[C@@H]2O)C2C1[C@H](O)C[C@]2(C)O` (some centres unmarked) [shanzhiside methylester], the entry is “remarkable estrogenic activity”.
